Laboratory results from US20160297833A1, “THIENOPYRIMIDINES AS MKNK1 AND MKNK2 INHIBITORS” (BAYER PHARMA AKTIENGESELLSCHAFT, priority 2013, published 2016).

Biological target: T1, human full-length MKNK1 (Homo sapiens, UniProt Q9BUB5, T385D)
T1 construct: GST (N); purchased Carna Biosciences 02-145; host or cells: insect cells (baculovirus expression system)
Experiment: MKNK1 kinase high ATP assay (TR-FRET)
Format: biochemical
Details: Table 1; MKNK1 kinase high ATP assay, 2 mM ATP; read-out: MKNK1 IC50
Procedure, shortened: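 Full-length human MKNK1 (T385D) preincubated 15 min at 22 °C with compound in HEPES pH 7.5/MgCl2/DTT buffer; reaction with 2 mM ATP (final) and 0.06 μM biotinylated peptide (final), 30 min at 22 °C.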

T1 sequence (Q9BUB5 1-424 isoform Q9BUB5-2 T344D): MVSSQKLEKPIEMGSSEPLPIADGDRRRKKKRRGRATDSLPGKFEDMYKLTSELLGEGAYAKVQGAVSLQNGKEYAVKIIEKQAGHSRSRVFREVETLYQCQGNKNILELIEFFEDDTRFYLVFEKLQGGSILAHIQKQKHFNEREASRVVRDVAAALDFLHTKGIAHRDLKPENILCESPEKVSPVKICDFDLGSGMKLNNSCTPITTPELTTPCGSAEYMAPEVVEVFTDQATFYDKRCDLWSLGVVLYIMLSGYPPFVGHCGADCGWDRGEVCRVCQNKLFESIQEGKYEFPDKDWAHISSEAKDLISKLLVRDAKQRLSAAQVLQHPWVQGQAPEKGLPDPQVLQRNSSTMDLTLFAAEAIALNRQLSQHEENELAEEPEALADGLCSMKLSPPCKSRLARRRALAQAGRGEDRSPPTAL

SMILES | IC50
CC(C)Oc1cc2[nH]ncc2cc1Nc1ncnc2sc3c(c12)CC[C@@H](C(=O)N1CC2(COC2)C1)C3 [Example 89, 2-Oxa-6-azaspiro[3.3]hept-6-yl[(7R)-4-{[6-(propan-2-yloxy)-1H-indazol-5-yl]amino}-5,6,7,8-tetrahydro[1]benzothieno[2,3-d]pyrimidin-7-yl]methanone] | 6 nM
CC(C)Oc1cc2[nH]ncc2cc1Nc1ncnc2sc3c(c12)CC[C@H](C(=O)N(C)CCO)C3 [Example 90, (7S)—N-(2-Hydroxyethyl)-N-methyl-4-{[6-(propan-2-yloxy)-1H-indazol-5-yl]amino}-5,6,7,8-tetrahydro[1]benzothieno[2,3-d]pyrimidine-7-carboxamide] | 0.6 nM
CC(C)Oc1cc2[nH]ncc2cc1Nc1ncnc2sc3c(c12)CC[C@H](C(=O)N(CCO)CCO)C3 [Example 91, (7S)—N,N-bis(2-Hydroxyethyl)-4-{[6-(propan-2-yloxy)-1H-indazol-5-yl]amino}-5,6,7,8-tetrahydro[1]benzothieno[2,3-d]pyrimidine-7-carboxamide] | 0.1 nM
CC(C)Oc1cc2[nH]ncc2cc1Nc1ncnc2sc3c(c12)CC[C@H](C(=O)N1C[C@H](O)[C@@H](O)C1)C3 [Example 92, [(3S,4S)-3,4-Dihydroxypyrrolidin-1-yl][(7S)-4-{[6-(propan-2-yloxy)-1H-indazol-5-yl]amino}-5,6,7,8-tetrahydro[1]benzothieno[2,3-d]pyrimidin-7-yl]methanone] | 0.2 nM
CC(C)Oc1cc2[nH]ncc2cc1Nc1ncnc2sc3c(c12)CC[C@H](C(=O)N1C[C@@H](O)[C@H](O)C1)C3 [Example 93, [(3R,4R)-3,4-Dihydroxypyrrolidin-1-yl][(7S)-4-{[6-(propan-2-yloxy)-1H-indazol-5-yl]amino}-5,6,7,8-tetrahydro[1]benzothieno[2,3-d]pyrimidin-7-yl]methanone] | 0.1 nM
CCCOc1cc2[nH]ncc2cc1Nc1ncnc2sc3c(c12)CC[C@H](C(=O)N(C)C)C3 [Example 94, (7S)—N,N-Dimethyl-4-[(6-propoxy-1H-indazol-5-yl)amino]-5,6,7,8-tetrahydro[1]benzothieno[2,3-d]pyrimidine-7-carboxamide] | 4.8 nM
CCCOc1cc2[nH]ncc2cc1Nc1ncnc2sc3c(c12)CC[C@H](C(=O)N1CC(C)(O)C1)C3 [Example 95, (3-Hydroxy-3-methylazetidin-1-yl){(7S)-4-[(6-propoxy-1H-indazol-5-yl)amino]-5,6,7,8-tetrahydro[1]benzothieno[2,3-d]pyrimidin-7-yl}methanone] | 2.3 nM
CN(C)C(=O)[C@H]1CCc2c(sc3ncnc(Nc4cc5cn[nH]c5cc4O)c23)C1 [Example 96, (7S)-4-[(6-Hydroxy-1H-indazol-5-yl)amino]-N,N-dimethyl-5,6,7,8-tetrahydro[1]benzothieno[2,3-d]pyrimidine-7-carboxamide] | 0.7 nM
CCCN(C)C(=O)[C@H]1CCc2c(sc3ncnc(Nc4cc5cn[nH]c5cc4OC)c23)C1 [Example 97, (7S)-4-[(6-methoxy-1H-indazol-5-yl)amino]-N-methyl-N-propyl-5,6,7,8-tetrahydro[1]benzothieno[2,3-d]pyrimidine-7-carboxamide] | 0.3 nM
CN(C)C(=O)[C@H]1CCc2c(sc3ncnc(Nc4cc5cn[nH]c5cc4N(C)C)c23)C1 [Example 98, (7S)-4-{[6-(Dimethylamino)-1H-indazol-5-yl]amino}-N,N-dimethyl-5,6,7,8-tetrahydro[1]benzothieno[2,3-d]pyrimidine-7-carboxamide] | 0.2 nM
CC(C)N(C)c1cc2[nH]ncc2cc1Nc1ncnc2sc3c(c12)CC[C@H](C(=O)N(C)C)C3 [Example 99, (7S)—N,N-Dimethyl-4-({6-[methyl(propan-2-yl)amino]-1H-indazol-5-yl}amino)-5,6,7,8-tetrahydro[1]benzothieno[2,3-d]pyrimidine-7-carboxamide] | 0.3 nM
CN(C)C(=O)[C@H]1CCc2c(sc3ncnc(Nc4cc5cn[nH]c5cc4NCC(C)(C)O)c23)C1 [Example 100, (7S)-4-({6-[(2-Hydroxy-2-methylpropyl)amino]-1H-indazol-5-yl}amino)-N,N-dimethyl-5,6,7,8-tetrahydro[1]benzothieno[2,3-d]pyrimidine-7-carboxamide] | 882 nM
CN(C)C(=O)[C@H]1CCc2c(sc3ncnc(Nc4cc5cn[nH]c5cc4N(C)CC(C)(C)O)c23)C1 [Example 101, (7S)-4-({6-[(2-Hydroxy-2-methylpropyl)(methyl)amino]-1H-indazol-5-yl}amino)-N,N-dimethyl-5,6,7,8-tetrahydro[1]benzothieno[2,3-d]pyrimidine-7-carboxamide] | 9.1 nM
CN(C)C(=O)[C@H]1CCc2c(sc3ncnc(Nc4cc5cn[nH]c5cc4N4CCC4)c23)C1 [Example 102, (7S)-4-{[6-(Azetidin-1-yl)-1H-indazol-5-yl]amino}-N,N-dimethyl-5,6,7,8-tetrahydro[1]benzothieno[2,3-d]pyrimidine-7-carboxamide] | 24.5 nM

Continued, values first:

IC50 | SMILES
1.3 nM | CN(C)C(=O)[C@H]1CCc2c(sc3ncnc(Nc4cc5cn[nH]c5cc4N4CCCC4)c23)C1 [Example 103, (7S)—N,N-Dimethyl-4-{[6-(pyrrolidin-1-yl)-1H-indazol-5-yl]amino}-5,6,7,8-tetrahydro[1]benzothieno[2,3-d]pyrimidine-7-carboxamide]
29.5 nM | CN(C)C(=O)[C@H]1CCc2c(sc3ncnc(Nc4cc5cn[nH]c5cc4N4CCC(N(C)C)CC4)c23)C1 [Example 104, (7S)-4-({6-[4-(Dimethylamino)piperidin-1-yl]-1H-indazol-5-yl}amino)-N,N-dimethyl-5,6,7,8-tetrahydro[1]benzothieno[2,3-d]pyrimidine-7-carboxamide]
14.1 nM | CCCCN(C)C(=O)[C@H]1CCc2c(sc3ncnc(Nc4cc5cn[nH]c5cc4N4CCC(N(C)C)CC4)c23)C1 [Example 105, (7S)—N-Butyl-4-({6-[4-(dimethylamino)piperidin-1-yl]-1H-indazol-5-yl}amino)-N-methyl-5,6,7,8-tetrahydro[1]benzothieno[2,3-d]pyrimidine-7-carboxamide]
4.6 nM | CSc1cc2[nH]ncc2cc1Nc1ncnc2sc3c(c12)CC[C@H](C(=O)N(C)C)C3 [Example 106, (7S)—N,N-Dimethyl-4-{[6-(methylsulfanyl)-1H-indazol-5-yl]amino}-5,6,7,8-tetrahydro[1]benzothieno[2,3-d]pyrimidine-7-carboxamide]
10 nM | CN(C)C(=O)[C@H]1CCc2c(sc3ncnc(Nc4cc5cn[nH]c5cc4OCCN=[N+]=[N-])c23)C1 [Example 107, (7S)-4-{[6-(2-Azidoethoxy)-1H-indazol-5-yl]amino}-N,N-dimethyl-5,6,7,8-tetrahydro[1]benzothieno[2,3-d]pyrimidine-7-carboxamide]
0.6 nM | CN(C)C(=O)[C@H]1CCc2c(sc3ncnc(Nc4cc5cn[nH]c5cc4OCCN)c23)C1 [Example 108, (7S)-4-{[6-(2-Aminoethoxy)-1H-indazol-5-yl]amino}-N,N-dimethyl-5,6,7,8-tetrahydro[1]benzothieno[2,3-d]pyrimidine-7-carboxamide]
16.5 nM | CN(C)CCOc1cc2[nH]ncc2cc1Nc1ncnc2sc3c(c12)CC[C@H](C(=O)N(C)C)C3 [Example 109, (7S)-4-({6-[2-(Dimethylamino)ethoxy]-1H-indazol-5-yl}amino)-N,N-dimethyl-5,6,7,8-tetrahydro[1]benzothieno[2,3-d]pyrimidine-7-carboxamide]
2.3 nM | CN(C)C(=O)[C@H]1CCc2c(sc3ncnc(Nc4cc5cn[nH]c5cc4OCCCN=[N+]=[N-])c23)C1 [Example 110, (7S)-4-{[6-(3-Azidopropoxy)-1H-indazol-5-yl]amino}-N,N-dimethyl-5,6,7,8-tetrahydro[1]benzothieno[2,3-d]pyrimidine-7-carboxamide]
1.4 nM | CN(C)C(=O)[C@H]1CCc2c(sc3ncnc(Nc4cc5cn[nH]c5cc4OCCCN)c23)C1 [Example 111, (7S)-4-{[6-(3-Aminopropoxy)-1H-indazol-5-yl]amino}-N,N-dimethyl-5,6,7,8-tetrahydro[1]benzothieno[2,3-d]pyrimidine-7-carboxamide]
76.3 nM | CN(C)C(=O)[C@H]1CCc2c(sc3ncnc(Nc4cc5cn[nH]c5cc4OCCN4CCCC4)c23)C1 [Example 112, (7S)—N,N-Dimethyl-4-({6-[2-(pyrrolidin-1-yl)ethoxy]-1H-indazol-5-yl}amino)-5,6,7,8-tetrahydro[1]benzothieno[2,3-d]pyrimidine-7-carboxamide]
634 nM | CN(C)C(=O)[C@H]1CCc2c(sc3ncnc(Nc4cc5cn[nH]c5cc4OCCN4CCCCC4)c23)C1 [Example 113, (7S)—N,N-Dimethyl-4-({6-[2-(piperidin-1-yl)ethoxy]-1H-indazol-5-yl}amino)-5,6,7,8-tetrahydro[1]benzothieno[2,3-d]pyrimidine-7-carboxamide]
34.2 nM | C[C@@H]1COCCN1C(=O)[C@H]1CCc2c(sc3ncnc(Nc4cc5cn[nH]c5cc4OCCN(C)C)c23)C1 [Example 114, [(7S)-4-({6-[2-(Dimethylamino)ethoxy]-1H-indazol-5-yl}amino)-5,6,7,8-tetrahydro[1]benzothieno[2,3-d]pyrimidin-7-yl][(3R)-3-methylmorpholin-4-yl]methanone]
71.5 nM | C[C@@H]1COCCN1C(=O)[C@H]1CCc2c(sc3ncnc(Nc4cc5cn[nH]c5cc4OCCN4CCCC4)c23)C1 [Example 115, [(3R)-3-Methylmorpholin-4-yl][(7S)-4-({6-[2-(pyrrolidin-1-yl)ethoxy]-1H-indazol-5-yl}amino)-5,6,7,8-tetrahydro[1]benzothieno[2,3-d]pyrimidin-7-yl]methanone]
1190 nM | C[C@@H]1COCCN1C(=O)[C@H]1CCc2c(sc3ncnc(Nc4cc5cn[nH]c5cc4OCCN4CCCCC4)c23)C1 [Example 116, [(3R)-3-Methylmorpholin-4-yl][(7S)-4-({6-[2-(piperidin-1-yl)ethoxy]-1H-indazol-5-yl}amino)-5,6,7,8-tetrahydro[1]benzothieno[2,3-d]pyrimidin-7-yl]methanone]
